Data on 17 molecules can be found in patent US11753407B2, “Compounds for treating spinal muscular atrophy” (PTC Therapeutics, Inc., priority 2012, dated 2023).

Structures are written as SMILES.

Series [1] relates to Smn protein in SMA patient fibroblast cells (GM03813). The experiment in a line: Smn protein assay in cultured cells (SMN HTRF). Conditions: SMA patient fibroblast cells, 48 hours; for EC1.5x for Smn protein expression: 7-point concentration curve, SMN HTRF, concentration producing 1.5 times Smn protein vs DMSO vehicle control; for maximum fold (Fold) increase of Smn protein: 7-point concentration data, fold relative to vehicle control. In kind it is cell-based, human. An outline of the steps: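 Cells were cultured 72 h, seeded at 5,000/well and dosed with seven concentrations (3.16-fold apart) for 48 h. HTRF on lysates, read at 665 and 620 nm, gave blank-corrected ΔF values relative to DMSO. Potency is reported as EC1.5×, efficacy as maximal fold Smn increase.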
(TR-FRET usually uses a lanthanide donor and a delayed reading to cut background.)

Series [2] relates to SMN2 minigene mRNA (SMN2-A minigene) in HEK293H cells. Kind of series: SMN2 minigene mRNA splicing RT-qPCR assay in cultured cells. The following applies: Homo sapiens, HEK293-H; concentration increasing full length SMN2 mRNA 1.5-fold relative to vehicle-treated cells; HEK293H cells with SMN2-A minigene, 24 hours, 7-point concentration data; read-out: EC1.5x for production of full length SMN2 mRNA. In kind it is cell-based, human. The gist of the method: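 EC1.5× values derive from a 24 h treatment of SMN2-A minigene HEK293H cells and GAPDH-normalized RT-qPCR of exon 7-included minigene mRNA relative to vehicle-treated cells.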

The melting point is the temperature of the solid-liquid transition. The molecule `Cc1cn2nc(-c3cc(=O)n4cc(N5CCNC(C)(C)C5)ccc4n3)cc2c(C)n1` [Compound 340, 7-(3,3-dimethylpiperazin-1-yl)-2-(4,6-dimethylpyrazolo[1,5-a]pyrazin-2-yl)-4H-pyrido[1,2-a]pyrimidin-4-one] showed a melting point of 195 to 197 °C. Further, in series [1], the “EC1.5x for Smn protein expression” value is reported as “**** (an EC1.5x≤0.3 μM is indicated by four stars (****))” and the “maximum fold (Fold) increase of Smn protein” value (“maximum fold (Fold) increase” for short) is given as “***** (a fold increase >1.65 is indicated by five stars (*****))”. Further, the EC (1.5-fold increase) in series [2] was below 0.1 µM.

`Cc1cn2nc(-c3cc(=O)n4cc(N5CCN(C)CC5)cc(C)c4n3)cc2c(C)n1` [Compound 457, 2-(4,6-dimethylpyrazolo[1,5-a]pyrazin-2-yl)-9-methyl-7-(4-methylpiperazin-1-yl)-4H-pyrido[1,2-a]pyrimidin-4-one] registered a melting point of 262 to 271 °C. Moreover, in series [1], the “EC1.5x for Smn protein expression” value is recorded as “**** (an EC1.5x≤0.3 μM is indicated by four stars (****))” and the “maximum fold (Fold) increase” value was “***** (a fold increase >1.65 is indicated by five stars (*****))”. In addition, the EC (1.5-fold increase) in series [2] is below 0.1 µM.

Regarding `Cc1cc(-c2cc(=O)n3cc(C4CCN(C)CC4)ccc3n2)cc2cn(C)nc12` [Compound 752, 2-(2,7-dimethyl-2H-indazol-5-yl)-7-(1-methylpiperidin-4-yl)-4H-pyrido[1,2-a]pyrimidin-4-one], the melting point lay in the range of 208 to 210 °C. Also, in series [1], the “EC1.5x for Smn protein expression” value is on record as “**** (an EC1.5x≤0.3 μM is indicated by four stars (****))” and the “maximum fold (Fold) increase” value is recorded as “***** (a fold increase >1.65 is indicated by five stars (*****))”. In addition, in series [2], the EC (1.5-fold increase) was below 0.1 µM.

For the molecule `Cc1nc2cc(-c3cc(=O)n4cc(N5CCN[C@@H](C)C5)ccc4n3)ccc2s1` [Compound 135, 2-(2-methyl-1,3-benzothiazol-5-yl)-7-[(3S)-3-methylpiperazin-1-yl]-4H-pyrido[1,2-a]pyrimidin-4-one], the melting point fell in the range of 174 to 180 °C. In addition, in series [1], the “EC1.5x for Smn protein expression” value is “**** (an EC1.5x≤0.3 μM is indicated by four stars (****))”; the “maximum fold (Fold) increase” value was “**** (a fold increase between >1.5 and ≤1.65 is indicated by four stars (****))”. For the same molecule, the EC (1.5-fold increase) in series [2] is below 0.1 µM.

The molecule `COc1ccc(-c2cc(=O)n3cc(N4CCC(N5CCOCC5)CC4)cc(C)c3n2)cc1OC` [Compound 419, 2-(3,4-dimethoxyphenyl)-9-methyl-7-[4-(morpholin-4-yl)piperidin-1-yl]-4H-pyrido[1,2-a]pyrimidin-4-one] showed a melting point of 219 to 224 °C. In addition, in series [1], the “maximum fold (Fold) increase” value was “** (a fold increase between >1.2 and ≤1.35 is indicated by two stars (**))”. Further, the EC (1.5-fold increase) in series [2] was in the range of 0.1 to 0.3 µM.

The molecule `Cc1cn2nc(-c3cc(=O)n4cc(N5CCN(CCO)CC5)ccc4n3)cc2c(C)n1` [Compound 531, 2-(4,6-dimethylpyrazolo[1,5-a]pyrazin-2-yl)-7-[4-(2-hydroxyethyl)piperazin-1-yl]-4H-pyrido[1,2-a]pyrimidin-4-one] had a melting point of 246 to 248 °C. In addition, in series [1], the “EC1.5x for Smn protein expression” value is “*** (an EC1.5× between >0.3 μM and ≤1 μM is indicated by three stars (***))”; the “maximum fold (Fold) increase” value was “***** (a fold increase >1.65 is indicated by five stars (*****))”. Moreover, the EC (1.5-fold increase) in series [2] was 0.1 to 0.3 µM.

On to `Cc1cn2cc(-c3ccc4nc(C5=CCN(C)CC5)cc(=O)n4c3)cc(F)c2n1` [Compound 411, 7-(8-fluoro-2-methylimidazo[1,2-a]pyridin-6-yl)-2-(1-methyl-1,2,3,6-tetrahydropyridin-4-yl)-4H-pyrido[1,2-a]pyrimidin-4-one], for which the melting point is 218 to 222 °C. Further, the “maximum fold (Fold) increase” value in series [1] was “*** (a fold increase between >1.35 and ≤1.5 is indicated by three stars (***))”. Besides, the EC (1.5-fold increase) in series [2] was below 0.1 µM.

The molecule `COc1ccc(-c2cc(=O)n3cc(N4CCN(C)CC4)cc(F)c3n2)cc1OC` [Compound 40, 2-(3,4-dimethoxyphenyl)-9-fluoro-7-(4-methylpiperazin-1-yl)-4H-pyrido[1,2-a]pyrimidin-4-one] registered a melting point of 183 to 185 °C. The “maximum fold (Fold) increase” value in series [1] is “* (A maximum fold increase of ≤1.2 is indicated by one star (*))”. For the same molecule, in series [2], the EC (1.5-fold increase) fell in the range of 3 to 30 µM.

Regarding `CCN1CCN(c2ccc3nc(-c4cccc(OC)c4)cc(=O)n3c2)CC1` [Compound 26, 7-(4-ethylpiperazin-1-yl)-2-(3-methoxyphenyl)-4H-pyrido[1,2-a]pyrimidin-4-one], the melting point lay in the range of 158 to 160 °C. For the same molecule, the “maximum fold (Fold) increase” value in series [1] is “** (a fold increase between >1.2 and ≤1.35 is indicated by two stars (**))”. The EC (1.5-fold increase) in series [2] was in the range of 3 to 30 µM.

With `COc1ccc(-c2cc(=O)n3cc(N4CC[C@H](NC(C)C)C4)ccc3n2)cc1OC` [Compound 165, 2-(3,4-dimethoxyphenyl)-7-[(3S)-3-(propan-2-ylamino)pyrrolidin-1-yl]-4H-pyrido[1,2-a]pyrimidin-4-one], the melting point was in the range of 169 to 172 °C. The “maximum fold (Fold) increase” value in series [1] is “** (a fold increase between >1.2 and ≤1.35 is indicated by two stars (**))”. In addition, the EC (1.5-fold increase) in series [2] was 1 to 3 µM.

In turn, `Cc1nc2ccc(-c3cc(=O)n4cc(N5CCCN(C)CC5)ccc4n3)cc2o1` [Compound 196, 2-(2-methyl-1,3-benzoxazol-6-yl)-7-(4-methyl-1,4-diazepan-1-yl)-4H-pyrido[1,2-a]pyrimidin-4-one] displayed a melting point of 146 to 150 °C. Besides, in series [1], the “EC1.5x for Smn protein expression” value was “**** (an EC1.5x≤0.3 μM is indicated by four stars (****))”; the “maximum fold (Fold) increase” value is “**** (a fold increase between >1.5 and ≤1.65 is indicated by four stars (****))”. In addition, in series [2], the EC (1.5-fold increase) is below 0.1 µM.

As for `CN(C)c1ccc(-c2cc(=O)n3cc(N4CCNCC4)ccc3n2)cc1` [Compound 53, 2-[4-(dimethylamino)phenyl]-7-(piperazin-1-yl)-4H-pyrido[1,2-a]pyrimidin-4-one], the melting point lay within 211 to 215 °C. Besides, in series [1], the “maximum fold (Fold) increase” value was “* (A maximum fold increase of ≤1.2 is indicated by one star (*))”. For the same molecule, the EC (1.5-fold increase) in series [2] lay in the range of 1 to 3 µM.

Molecule `Cc1cn2nc(-c3cc(=O)n4cc(N5CCN[C@@H](C)C5)cc(C)c4n3)cc2c(C)n1` [Compound 561, 2-(4,6-dimethylpyrazolo[1,5-a]pyrazin-2-yl)-9-methyl-7-[(3S)-3-methylpiperazin-1-yl]-4H-pyrido[1,2-a]pyrimidin-4-one] had a melting point of 210 to 219 °C. In series [1], the “EC1.5x for Smn protein expression” value is “**** (an EC1.5x≤0.3 μM is indicated by four stars (****))”; the “maximum fold (Fold) increase” value is “**** (a fold increase between >1.5 and ≤1.65 is indicated by four stars (****))”. Besides, in series [2], the EC (1.5-fold increase) was below 0.1 µM.

In the case of `CCN1CCN(c2ccc3nc(-c4cc(CO)c5nc(C)cn5c4)cc(=O)n3c2)CC1` [Compound 678, 7-(4-ethylpiperazin-1-yl)-2-[8-(hydroxymethyl)-2-methylimidazo[1,2-a]pyridin-6-yl]-4H-pyrido[1,2-a]pyrimidin-4-one], the melting point lay in the range of 258 to 262 °C. In addition, in series [1], the “EC1.5x for Smn protein expression” value is listed as “**** (an EC1.5x≤0.3 μM is indicated by four stars (****))” and the “maximum fold (Fold) increase” value is given as “***** (a fold increase >1.65 is indicated by five stars (*****))”. In addition, the EC (1.5-fold increase) in series [2] was below 0.1 µM.

`CCc1nc(C)cn2nc(-c3cc(=O)n4cc(N5CCN(C6COC6)[C@H](C)C5)ccc4n3)cc12` [Compound 646, 2-(4-ethyl-6-methylpyrazolo[1,5-a]pyrazin-2-yl)-7-[(3R)-3-methyl-4-(oxetan-3-yl)piperazin-1-yl]-4H-pyrido[1,2-a]pyrimidin-4-one] showed a melting point of 216 to 219 °C. In series [1], the “EC1.5x for Smn protein expression” value is “** (an EC1.5× between >1 μM and ≤3 μM is indicated by two stars (**))”; the “maximum fold (Fold) increase” value was “***** (a fold increase >1.65 is indicated by five stars (*****))”. Moreover, in series [2], the EC (1.5-fold increase) is 0.3 to 1 µM.

As to `CCCN1CCN(c2ccc3nc(-c4cc5c(CC)nc(C)cn5n4)cc(=O)n3c2)C[C@H]1C` [Compound 631, 2-(4-ethyl-6-methylpyrazolo[1,5-a]pyrazin-2-yl)-7-[(3R)-3-methyl-4-propylpiperazin-1-yl]-4H-pyrido[1,2-a]pyrimidin-4-one], the melting point lay within 243 to 245 °C. In series [1], the “EC1.5x for Smn protein expression” value is “*** (an EC1.5× between >0.3 μM and ≤1 μM is indicated by three stars (***))”; the “maximum fold (Fold) increase” value is listed as “***** (a fold increase >1.65 is indicated by five stars (*****))”. For the same molecule, the EC (1.5-fold increase) in series [2] lay in the range of 0.1 to 0.3 µM.

Take `COc1ccc(-c2cc(=O)n3cc(C4=CCN(CCO)CC4)ccc3n2)cc1OC` [Compound 248, 2-(3,4-dimethoxyphenyl)-7-[1-(2-hydroxyethyl)-1,2,3,6-tetrahydropyridin-4-yl]-4H-pyrido[1,2-a]pyrimidin-4-one]: the melting point was in the range of 134 to 137 °C. Besides, in series [1], the “EC1.5x for Smn protein expression” value was “*** (an EC1.5× between >0.3 μM and ≤1 μM is indicated by three stars (***))”; the “maximum fold (Fold) increase” value was “**** (a fold increase between >1.5 and ≤1.65 is indicated by four stars (****))”. In series [2], the EC (1.5-fold increase) lay within 0.3 to 1 µM.
